Assay results as given in PubChem BioAssay AID1963425 (Molecular Pharmacology Branch, DTP, NCI, 2024).
Several values for one entry are separate records, joined by “and”; a condition that tells them apart may be missing. Equal values may be shown once.

System: 323965-272-R-J2-PDC complex spheroid growth, % test/control
Experiment: Anticancer human tumor 323965-272-R-J2-PDC patient-derived pancreatic carcinoma cell line growth inhibition [Asc]
Conditions: for viability, T/C: stronger effect = lower value
Experimental: Multicellular complex tumor spheroid response to apoptosis pathway targeting inhibitors Alrizomadlin, Pelcitoclax, and Dasminapant in combination with a variety of drugs and investigational agents in selected tumor cell lines
The MDM2 inhibitor alrizomadlin, the Bcl-2/Bcl-xL inhibitor pelcitoclax, and the IAPs inhibitor dasminapant were evaluated both individually and in combination with standard of care and investigational anticancer small molecules within a complex spheroid model of solid tumors. . Complex spheroids include a stromal component modeled by human endothelial cells (HUVEC) and fibroblasts modeled by human mesenchymal stem cells (MSCs). The concentration ranges selected for each drug and investigational agent were based upon clinically achievable concentrations if the clinical Cmax of the agent was known.
Compounds. The drugs and investigational agents: alrizomadlin (APG-115; NSC831270), pelcitoclax (APG-1252; NSC835773), dasminapant (APG-1387;NSC834197), TAK-243 (NSC785004), copanlisib (NSC809693), olaparib (NSC753686), talazoparib (NSC767125), cobimetinib (NSC 768068), eltanexor (KPT-8602, NSC 794443), abemaciclib (NSC 768073), sotorasib (NSC818433), adagrasib (NSC 831453), MRTX-1133 (NSC 836407), Iadademestat (ORY1001, NSC 806812), and RMC-4630 (NSC839698), were obtained from the NCI Developmental Therapeutics Program Chemical Repository. The FDA-approved anticancer drug set is available from the Developmental Therapeutics Program at https://dtp.cancer.gov/organization/dscb/obtaining/available plates.htm. […] The stock solutions were prepared in dimethyl sulfoxide (DMSO, Sigma-Aldrich, St. Louis, MO, cat. D2650) at 800-fold the tested concentration and stored at -70 degrees C prior to their use. All drugs and investigational agents were tested over a range starting from a high concentration at or near the clinical Cmax and decreasing in half-log increments. If the clinical Cmax for an agent had not been determined, the highest concentration tested was 10 microM.
The patient-derived cancer (PDC) cell lines include five colon adenocarcinomas: 186277-243-T-J2-PDC, 616215-338-R-J1-PDC, 439559-082-T-J2-PDC, 463943-066-T-J2-PDC, and 519858-162-T-J1-PDC; three pancreatic carcinomas: 323965-272-R-J2-PDC, 521955-158-R6-J3-PDC, and 521955-158-R2-J5-PDC; two uterine sarcomas: 327498-152-R-J2-PDC and 993429-296-R-J1-PDC; two rhabdomyosarcomas: 755483-174-R-J1-PDC and 772245-204-R-J1-PDC; two soft tissue sarcomas: 126254-015-R-J1-PDC and 494315-158-R-J1-PDC; two malignant fibrous histiocytomas: 317291-083-R-J1-PDC and 596521-263-R-J1-PDC; two breast carcinomas: 171881-019-R-J1-PDC and 885512-296-R-J2-PDC; and one ovarian carcinoma: 6556581-035-R-J-PDC were obtained from the NCI PDMR, (https://pdmr.cancer.gov). The established cell lines HSSY-2 synovial sarcoma (RRID:CVCL 8719), SYO-1 synovial sarcoma (RRID:CVCL_7146), MPNST malignant peripheral neural sheath tumor were obtained from the Sloan Kettering Institute. The following established cell lines were purchased from the American Type Culture Collection (ATCC, Manassas, VA), Sor the received from the NCI repository:, PANC-1 pancreatic carcinoma (CRL-1469, RRID:CVCL_0480), OVCAR-5 ovarian carcinoma (RRID:CVCL_1628), OVCAR-8 ovarian carcinoma (RRID:CVCL_1629), , MCF-7 breast carcinoma (CRL-12584, RRID:CVCL_0031), MDA-MB-231 breast carcinoma (CRL-12532, RRID:CVCL_0062), NCI-H1876 small cell lung carcinoma (CRL-5902, RRID:CVCL_1503), NCI-H510A small cell lung carcinoma (HTB-184, RRID:CVCL_1565), NCI-H1417 (CRL-5869, RRID:CVCL_1469), and NCI-H196 small cell lung carcinoma (CRL-5823, RRID:CVCL_1509). Dr. Peter Houghton (Greehey Children's Cancer Research Institute, University of Texas Health Science Center, San Antonio, TX) provided Rh-18 rhabdomyosarcoma (RRID:CVCL_1659). Pooled donor human umbilical vein endothelial cells (HUVEC, Lonza, cat. CC-2519) and human mesenchymal stem cells (hMSC, Lonza, cat. PT-2501) were purchased from Lonza (Walkersville, MD).
Cell Culture. […]

[1] = compound alone, run of 11/07/2022
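Also: compound exposure lasted 7 days starting three days after spheroid seeding.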
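For viability, T/C in this document: 100% = DMSO vehicle control wells with viability set relative to vehicle.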

`Cc1c(S(C)(=O)=O)c(-c2cc(F)cc(N3CCN(c4ccc(NS(=O)(=O)c5ccc(NC(CCN6CCC(C(=O)OCCCP(=O)(O)O)CC6)CSc6ccccc6)c(S(=O)(=O)C(F)(F)F)c5)cc4)CC3)c2)c(-c2ccc(Cl)cc2)n1C(C)C` (stereo not drawn) was tested, and the viability, T/C (compound 0.0316 µM) was 107% [middle of 7 runs], the viability, T/C (compound 0.1 µM) was 107% [middle of 7 runs] and the viability, T/C (compound 0.316 µM) was 98.3% [middle of 7 runs]. The viability, T/C (compound 3.16 µM) was 84.5% [middle of 7 runs], the viability, T/C (compound 10 µM) was 76.9% [middle of 7 runs] and the IC50 [1] was > 10000 nM.

`NC1CCC(NC2CC2c2ccccc2)CC1` (stereo not drawn) + Cc1c(S(C)(=O)=O)c(-c2cc(F)cc(N3CCN(c4ccc(NS(=O)(=O)c5ccc(NC(CCN6CCC(C(=O)OCCCP(=O)(O)O)CC6)CSc6ccccc6)c(S(=O)(=O)C(F)(F)F)c5)cc4)CC3)c2)c(-c2ccc(Cl)cc2)n1C(C)C was tested, and the IC50 (curve of first compound, second compound 0.0316 µM) was > 100 nM, the IC50 (curve of first compound, second compound 0.1 µM) was > 100 nM and the IC50 (curve of first compound, second compound 0.316 µM) was > 100 nM. For the same molecule, the IC50 (curve of first compound, second compound 1 µM) was > 100 nM, the IC50 (curve of first compound, second compound 3.16 µM) was > 100 nM and the IC50 (curve of first compound, second compound 10 µM) was > 100 nM. The viability, T/C (second compound 0.0316 µM, first compound 0.000316 µM) was 105%, the viability, T/C (second compound 0.0316 µM, first compound 0.001 µM) was 107% and the viability, T/C (second compound 0.0316 µM, first compound 0.00316 µM) was 107%. The viability, T/C (second compound 0.0316 µM, first compound 0.01 µM) was 109%, the viability, T/C (second compound 0.0316 µM, first compound 0.0316 µM) was 122% and the viability, T/C (second compound 0.0316 µM, first compound 0.1 µM) was 112%. The viability, T/C (second compound 0.1 µM, first compound 0.000316 µM) was 105%, the viability, T/C (second compound 0.1 µM, first compound 0.001 µM) was 99.2% and the viability, T/C (second compound 0.1 µM, first compound 0.00316 µM) was 120%. For the same molecule, the viability, T/C (second compound 0.1 µM, first compound 0.01 µM) was 113%, the viability, T/C (second compound 0.1 µM, first compound 0.0316 µM) was 109% and the viability, T/C (second compound 0.1 µM, first compound 0.1 µM) was 99%. For the same molecule, the viability, T/C (second compound 0.316 µM, first compound 0.000316 µM) was 108%, the viability, T/C (second compound 0.316 µM, first compound 0.001 µM) was 101% and the viability, T/C (second compound 0.316 µM, first compound 0.00316 µM) was 96.6%. For the same molecule, the viability, T/C (second compound 0.316 µM, first compound 0.01 µM) was 103%, the viability, T/C (second compound 0.316 µM, first compound 0.0316 µM) was 104% and the viability, T/C (second compound 0.316 µM, first compound 0.1 µM) was 102%. It also gave a viability, T/C (second compound 1 µM, first compound 0.000316 µM) of 94.4%, a viability, T/C (second compound 1 µM, first compound 0.001 µM) of 100% and a viability, T/C (second compound 1 µM, first compound 0.00316 µM) of 93.9%. It also gave a viability, T/C (second compound 1 µM, first compound 0.01 µM) of 106%, a viability, T/C (second compound 1 µM, first compound 0.0316 µM) of 96.5% and a viability, T/C (second compound 1 µM, first compound 0.1 µM) of 92.2%. It also gave a viability, T/C (second compound 3.16 µM, first compound 0.000316 µM) of 84.5%, a viability, T/C (second compound 3.16 µM, first compound 0.001 µM) of 82.1% and a viability, T/C (second compound 3.16 µM, first compound 0.00316 µM) of 81.5%. It also gave a viability, T/C (second compound 3.16 µM, first compound 0.01 µM) of 76.5%, a viability, T/C (second compound 3.16 µM, first compound 0.0316 µM) of 90% and a viability, T/C (second compound 3.16 µM, first compound 0.1 µM) of 81.2%. For the same molecule, the viability, T/C (second compound 10 µM, first compound 0.000316 µM) was 83%, the viability, T/C (second compound 10 µM, first compound 0.001 µM) was 70.1% and the viability, T/C (second compound 10 µM, first compound 0.00316 µM) was 66.5%. The viability, T/C (second compound 10 µM, first compound 0.01 µM) was 84%, the viability, T/C (second compound 10 µM, first compound 0.0316 µM) was 81.9% and the viability, T/C (second compound 10 µM, first compound 0.1 µM) was 73%.

For `COc1c(OCCCN2CCOCC2)ccc2c3n(c(=NC(=O)c4cnc(N)nc4)nc12)CCN3`, the viability, T/C (compound 0.00316 µM) was 100% and 85.6% and 103%, the viability, T/C (compound 0.01 µM) was 99.3% and 80.7% and 93% and the viability, T/C (compound 0.0316 µM) was 79.6% and 65.5% and 71.6%. The viability, T/C (compound 0.1 µM) was 49.5% and 56.1% and 55.9%, the viability, T/C (compound 0.316 µM) was 32.8% and 41.2% and 33.7% and the viability, T/C (compound 1 µM) was 30.5% and 33.6% and 25.3%. For the same molecule, the IC50 (curve of compound) was 154 nM and 119 nM and 92.1 nM.

In the case of `CCN1C(C(=O)NC23CCC(C(=O)O)(CC2)CC3)C(c2cccc(Cl)c2F)C2(C(=O)Nc3cc(Cl)ccc32)C12CCCCC2` (stereo not drawn), the viability, T/C (compound 0.00949 µM) is reported as 109% [middle of 9 runs], the viability, T/C (compound 0.03 µM) is reported as 105% [middle of 9 runs] and the viability, T/C (compound 0.0949 µM) is reported as 104% [middle of 9 runs]. The viability, T/C (compound 0.3 µM) was 101% [middle of 9 runs], the viability, T/C (compound 0.949 µM) was 110% [middle of 9 runs] and the viability, T/C (compound 3 µM) was 101% [middle of 9 runs]. The IC50 [1] was > 3000 nM and the IC50 (curve of compound) was > 3000 nM.
